Data published in US12331041B2, “GLP-1 receptor agonists and uses thereof” (Pfizer Inc., priority 2018, dated 2025).
Where a name gives a salt, the structure may show the parent alone.

What was measured:
[1] = target: T1, human GLP-1R (Homo sapiens, UniProt P43220, G168S); test: CHO GLP-1R Clone H6 - Assay 1 (HTRF cAMP agonist assay); format: cell-based; details: for EC50: CHO Clone H6, high GLP-1R density, cAMP, geometric mean; for Emax: CHO Clone H6, relative to saturating full agonist GLP-1 7-36 (1 μM), arithmetic mean
T1 construct: expressed in transfected cells
Method in brief: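 CHO Clone H6 cells stably expressing human GLP-1R (G168S) were plated 48 h, then given compound for 30 min at 37° C in HBSS/0.1% BSA/HEPES with 100 μM IBMX and 1% DMSO. cAMP was measured by HTRF against a standard curve.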

[2] = target: T2, human GLP-1R (Homo sapiens, UniProt P43220, L260F); test: CHO GLP-1R Clone C6 - Assay 2 (HTRF cAMP agonist assay); format: cell-based; details: for EC50: CHO clone C6, low GLP-1R density, cAMP, geometric mean; for Emax: CHO clone C6, relative to saturating full agonist GLP-1 (1 μM), arithmetic mean
T2 construct: expressed in transfected cells; host or cells: CHO Flp-In T-REx, clonal line C6 (pcDNA5-FRT-TO)
T2 sequence (P43220 24-463 L260F): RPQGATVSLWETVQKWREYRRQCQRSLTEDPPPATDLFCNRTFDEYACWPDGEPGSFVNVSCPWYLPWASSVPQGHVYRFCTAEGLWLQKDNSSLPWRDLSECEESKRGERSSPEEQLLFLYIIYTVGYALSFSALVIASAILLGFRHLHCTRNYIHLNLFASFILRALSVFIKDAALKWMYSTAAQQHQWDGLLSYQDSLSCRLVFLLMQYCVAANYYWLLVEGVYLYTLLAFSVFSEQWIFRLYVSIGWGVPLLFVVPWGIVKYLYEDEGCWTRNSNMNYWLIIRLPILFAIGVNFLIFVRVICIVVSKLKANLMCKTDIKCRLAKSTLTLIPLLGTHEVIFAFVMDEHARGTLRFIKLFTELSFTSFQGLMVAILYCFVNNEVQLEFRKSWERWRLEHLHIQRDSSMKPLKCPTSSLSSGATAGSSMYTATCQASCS

T1 sequence (P43220 24-463 G168S): as the sequence (P43220 24-463 L260F) above, with G145S, F237L counted along it

EC50 [1] [nM]	Emax [1] [%]	EC50 [2] [nM]	Emax [2] [%]	Compound
21	88	370	100	C[C@@H]1CN(c2ccnc(OCc3ccc(Cl)cc3F)n2)CCN1Cc1nc2ccc(C(=O)O)cc2n1C[C@@H]1CCO1 [Example 75, ammonium 2-{[(2R)-4-{2-[(4-chloro-2-fluorobenzyl)oxy]pyrimidin-4-yl}-2-methylpiperazin-1-yl]methyl}-1-[(2S)-oxetan-2-ylmethyl]-1H-benzimidazole-6-carboxylate]
12	88	180	100	C[C@@H]1CN(Cc2nc3ccc(C(=O)O)cc3n2C[C@@H]2CCO2)[C@@H](C)CN1c1ccnc(OCc2ccc(Cl)cc2F)n1 [Example 76, ammonium 2-{[(2S,5R)-4-{2-[(4-chloro-2-fluorobenzyl)oxy]pyrimidin-4-yl}-2,5-dimethylpiperazin-1-yl]methyl}-1-[(2S)-oxetan-2-ylmethyl]-1H-benzimidazole-6-carboxylate]
4.4	100	110	110	C[C@H]1CN(c2ccnc(OCc3ccc(Cl)cc3F)n2)CCN1Cc1nc2ccc(C(=O)O)nc2n1C[C@@H]1CCO1 [Example 77, 2-{[(2S)-4-{2-[(4-chloro-2-fluorobenzyl)oxy]pyrimidin-4-yl}-2-methylpiperazin-1-yl]methyl}-3-[(2S)-oxetan-2-ylmethyl]-3H-imidazo[4,5-b]pyridine-5-carboxylic acid]
17	79	440	81	C[C@H]1CN(c2ccnc(OCc3ccc(Cl)cc3F)n2)CCN1Cc1nc2ccc(C(=O)O)cc2n1Cc1ncco1 [Example 78, 2-{[(2S)-4-{2-[(4-chloro-2-fluorobenzyl)oxy]pyrimidin-4-yl}-2-methylpiperazin-1-yl]methyl}-1-(1,3-oxazol-2-ylmethyl)-1H-benzimidazole-6-carboxylic acid, trifluoroacetate salt]
